Reference: patent US20080119412A1, “Polypeptides for Modulating Binding of Trp Channel Proteins and Trp- Associated Proteins” (NoNO Inc., priority 2003, published 2008)
Residues, ends and D or L forms follow the SMILES beside them. *: point of attachment. Biotin = O=C1N[C@H]2[C@H](CS[C@H]2CCCCC(=O)*)N1

Experiments:
TRPM2 = TRPM2 (Homo sapiens, UniProt O94759); settings: binding to carboxy-terminal NUDT9 Nudix hydrolase domain; read-out: EC50, gating of TRPM2 channel; cited from earlier work
INADL d3 [1] = biological target: T1, INADL d3 (Homo sapiens, UniProt Q8NI35); experiment: G3 assay titration, GST-PDZ fusion / biotinylated peptide; type: binding; settings: for ODmax (450 nm): Table 10, titration of peptides with INADL d3
T1 construct: made in house; host or cells: E. coli (DH5alpha, BL21 or JM109)
T1 sequence (Q8NI35 with tags, fused parts or gaps): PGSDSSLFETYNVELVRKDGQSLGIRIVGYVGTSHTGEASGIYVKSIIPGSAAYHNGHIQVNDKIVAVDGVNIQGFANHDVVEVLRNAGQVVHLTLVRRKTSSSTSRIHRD
Experimental: (§1) The G3 assay is identical to the G0 assay with the following exceptions. The peptides are typically present at 0.1 μM rather than 20 μM. The peptides are also pre-incubated with the HRP-streptavidin prior to adding to the assay plate. In the G0 assay, free peptide is incubated with the PDZ proteins prior to the addition of the HRP-streptavidin. Thus, for the G0 assay one can lose signal if the bound peptide dissociates from the PDZ protein prior to the addition of the HRP-streptavidin. In the G3 modified assay the HRP-streptavidin/peptide complex is added to the plate in one step, thus increasing the likelihood that all the bound peptide will be bound to HRP-streptavidin. The G3 modified assay increases the chance of observing weak interactions.
(§2) This example describes assays to identify binding between TRPM7 and PDZ domains. GST-PDZ fusions are produced that each contain an entire PDZ domain (or multiple PDZ domains), the collection encompassing approximately 90% of all PDZ domains identified in the human genome. (See Table 5 and Section V (PDZ Proteins and PL Protein Interactions Disclosure). Biotinylated peptide corresponding to 11 residues of Tat coupled to the C-terminal 9 amino acids of TRPM7 ([…]; SEQ ID NO:258) is synthesized and purified by HPLC.
(§3) • Nunc MaxiSorp 96 well Immuno-plate, Nunc • PBS pH 7.4 (phosphate buffered saline, 8 g NaCl, 0.29 g KCl, 1.44 g Na2HPO4, 0.24 g KH2PO4, add H2O to 1 liter and pH 7.4; 0.2 μm filter) • Assay Buffer: 2% BSA in PBS (20 g of bovine serum albumin per liter PBS, fraction V, ICN Biomedicals, cat#IC15142983 • Goat anti-GST polyclonal Ab, stock 5 mg/ml, stored at 4° C., Amersham Pharmacia cat#27-4577-01 • Dilute 1:1000 in PBS, final concentration 5 μg/ml. • HRP-Streptavidin, 2.5 mg/2 ml stock stored at 4° C., Zymed cat#43-4323, dilute 1:2000 into Assay buffer, final concentration of […] • Wash Buffer, PBS • Biotinylated peptides (HPLC purified, stock solution stored in −20° C. freezer) • GST-PRISM proteins (stock stored at −80° C., after 1st thaw store in −10° C. freezer) • TMB (3,3′,5,5′, teramethylbensidine), tablets, Sigma cat.#T5525 • Per plate, dissolve 1 tablet in 1 ml DMSO, add 9 ml Citrate/Phosphate buffer pH 5.4 and 2 μL H2O2 • 0.1 M H2SO4, Sigma cat.#S1526 • 12-w multichannel pipettor & tips • 50 ml reagent reservoirs, Costar#4870 • 50, 15 ml polypropylene conical tubes • Costar Transtar 96 Costar #7605 • Transtar 96 Cartridge Costar #7610 • Molecular Devices microplate reader (450 & 650 nm filters) with SoftMax Pro software *When using reagents stored at or 4° C. or −20° C., remove & keep on ice
(§4) • 1. Coat plate with 100 μl of 5 μg/ml anti-GST, overnight at 4° C. • 2. Dump contents of plate & out tap dry on paper towels • 3. Block with 200 μl Assay Buffer for 2 hrs at room temperature • 4. Prepare proteins at 5 μg/ml in Assay Buffer • 5. Wash 3× with cold PBS (4° C.), avoiding letting the plates dry out • 6. Add proteins at 50 μl per well, incubate 1 to 2 hrs at 4° C. • 7. Prepare peptides to desired concentration in Assay Buffer • 8. Wash 3× with cold PBS (4° C.), avoiding letting the plates dry out • 9. Add HRP-Streptavidin/peptide complex [prepared by incubating for 20 minutes at room temperature HRP-Streptavidin (1:2000) with the desired biotin-peptide concentration for 20 minutes at room temperature] at 50 μl per well on ice • 10. Place at room temperature for exactly 30 minutes • 11. Promptly wash 5× with PBS at room temperature • 12. Add 100 μl/well TMB substrate (write time on plate) • 13. Incubate in dark at room temperature for a maximum of 30 minutes • 14. Read plate at 25 minutes (650 nm), optional • 15. Stop reaction with 100 μl of 0.18 M H2SO4, 30 minutes after adding TMB • Take last reading at 450 nm soon after stopping reaction
(§5) The G3 assay was performed using 0.1 μM peptide representing 11 amino acids of Tat fused to the final 9 amino acids of TRPM7 ([…]; SEQ ID NO:258). […]

ZO-1 d2 [2] = biological target: T2, ZO-1 d2 (Homo sapiens, UniProt Q07157, DEL264-264); experiment: as above; type: binding; settings: for ODmax (450 nm): Table 10, titration of peptides with ZO-1 d2
T2 construct: made in house; host or cells: E. coli (DH5alpha, BL21 or JM109)
T2 sequence (Q07157 with tags, fused parts or gaps DEL264-264): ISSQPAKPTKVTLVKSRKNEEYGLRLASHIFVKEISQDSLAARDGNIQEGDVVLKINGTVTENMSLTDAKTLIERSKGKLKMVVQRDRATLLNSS
Experimental: as §1, §2, §3, §4, §5

INADL d3 [3] = biological target: T1, INADL d3; experiment: G assay, peptide binding to GST-PDZ fusion (Table 11); settings: Table 11, titrations or binding assays
Experimental: (§6) The binding of labeled PL peptide (e.g., as listed in TABLE 2 and TABLE 4) to this surface is then measured. In a preferred embodiment, the assay is carried out as follows:
(§7) (1) A PDZ-domain polypeptide is bound to a surface, e.g. a protein binding surface. In a preferred embodiment, a GST/PDZ fusion protein containing one or more PDZ domains is bound to a polystyrene 96-well plate. […] In one embodiment, the GST/PDZ fusion protein is bound via an anti-GST antibody that is coated onto the 96-well plate. Adequate binding to the plate can be achieved when:
(§8) (2) Biotinylated PL peptides are allowed to react with the surface by addition of 50 μl per well of 20 μM solution of the biotinylated peptide in PBS/BSA for 10 minutes at 4° C., followed by an additional 20 minute incubation at 25° C. The plate is washed 3 times with ice cold PBS.
(§9) (3) The binding of the biotinylated peptide to the GST/PDZ fusion protein surface can be detected using a variety of methods and detectors known to one of skill in the art. In one embodiment, 100 μl per well of 0.5 μg/ml streptavidin-horseradish peroxidase (HRP) conjugate dissolved in BSA/PBS is added and allowed to react for 20 minutes at 4° C. The plate is then washed 5 times with 50 mM Tris pH 8.0 containing 0.2% Tween 20, and developed by addition of 100 μl per well of HRP-substrate solution (TMB, Dako) for 20 minutes at room temperature (RT). The reaction of the HRP and its substrate is terminated by addition of 100 μl per well of 1 M sulfuric acid, and the optical density (O.D.) of each well of the plate is read at 450 um.
(§10) (4) Specific binding of a PL peptide and a PDZ domain polypeptide is determined by comparing the signal from the well(s) in which the PL peptide and PDZ domain polypeptide are combined, with the background signal(s). […] Typically a specific or selective reaction will be at least twice background signal, more typically more than 5 times background, and most typically 10 or more times the background signal. […] Correspondingly, a statistical test (e.g. a T-test) comparing repeated measurements of the signal with -repeated measurements of the background will result in a p-value <0.05, more typically a p-value <0.01, and most typically a p-value <0.001 or less. As noted, in an embodiment of the G assay, the signal from binding of a given PL peptide to immobilized (surface bound) GST polypeptide alone is one suitable negative control (sometimes referred to as B1). Because all measurement are done in multiples (i.e. at least duplicate) the arithmetic mean (or, equivalently, average.) of several measurements is used in determining the binding, and the standard error of the mean is used in determining the probable error in the measurement of the binding. The standard error of the mean of N measurements equals the square root of the following: the sum of the squares of the difference between each measurement and the mean, divided by the product of (N) and (N−1). Thus, in one embodiment, specific binding of the PDZ protein to the platebound peptide is determined by comparing the mean signal (“mean S”) and standard error of the signal (“SE”) for a particular PL-PDZ combination with the mean B1.

ZO-1 d2 [4] = biological target: T2, ZO-1 d2; experiment: as above; settings: Table 11, titrations or binding assays
Experimental: as §6, §7, §8, §9, §10

TRPM2, sequence (O94759 whole entry, the tested form may be a part): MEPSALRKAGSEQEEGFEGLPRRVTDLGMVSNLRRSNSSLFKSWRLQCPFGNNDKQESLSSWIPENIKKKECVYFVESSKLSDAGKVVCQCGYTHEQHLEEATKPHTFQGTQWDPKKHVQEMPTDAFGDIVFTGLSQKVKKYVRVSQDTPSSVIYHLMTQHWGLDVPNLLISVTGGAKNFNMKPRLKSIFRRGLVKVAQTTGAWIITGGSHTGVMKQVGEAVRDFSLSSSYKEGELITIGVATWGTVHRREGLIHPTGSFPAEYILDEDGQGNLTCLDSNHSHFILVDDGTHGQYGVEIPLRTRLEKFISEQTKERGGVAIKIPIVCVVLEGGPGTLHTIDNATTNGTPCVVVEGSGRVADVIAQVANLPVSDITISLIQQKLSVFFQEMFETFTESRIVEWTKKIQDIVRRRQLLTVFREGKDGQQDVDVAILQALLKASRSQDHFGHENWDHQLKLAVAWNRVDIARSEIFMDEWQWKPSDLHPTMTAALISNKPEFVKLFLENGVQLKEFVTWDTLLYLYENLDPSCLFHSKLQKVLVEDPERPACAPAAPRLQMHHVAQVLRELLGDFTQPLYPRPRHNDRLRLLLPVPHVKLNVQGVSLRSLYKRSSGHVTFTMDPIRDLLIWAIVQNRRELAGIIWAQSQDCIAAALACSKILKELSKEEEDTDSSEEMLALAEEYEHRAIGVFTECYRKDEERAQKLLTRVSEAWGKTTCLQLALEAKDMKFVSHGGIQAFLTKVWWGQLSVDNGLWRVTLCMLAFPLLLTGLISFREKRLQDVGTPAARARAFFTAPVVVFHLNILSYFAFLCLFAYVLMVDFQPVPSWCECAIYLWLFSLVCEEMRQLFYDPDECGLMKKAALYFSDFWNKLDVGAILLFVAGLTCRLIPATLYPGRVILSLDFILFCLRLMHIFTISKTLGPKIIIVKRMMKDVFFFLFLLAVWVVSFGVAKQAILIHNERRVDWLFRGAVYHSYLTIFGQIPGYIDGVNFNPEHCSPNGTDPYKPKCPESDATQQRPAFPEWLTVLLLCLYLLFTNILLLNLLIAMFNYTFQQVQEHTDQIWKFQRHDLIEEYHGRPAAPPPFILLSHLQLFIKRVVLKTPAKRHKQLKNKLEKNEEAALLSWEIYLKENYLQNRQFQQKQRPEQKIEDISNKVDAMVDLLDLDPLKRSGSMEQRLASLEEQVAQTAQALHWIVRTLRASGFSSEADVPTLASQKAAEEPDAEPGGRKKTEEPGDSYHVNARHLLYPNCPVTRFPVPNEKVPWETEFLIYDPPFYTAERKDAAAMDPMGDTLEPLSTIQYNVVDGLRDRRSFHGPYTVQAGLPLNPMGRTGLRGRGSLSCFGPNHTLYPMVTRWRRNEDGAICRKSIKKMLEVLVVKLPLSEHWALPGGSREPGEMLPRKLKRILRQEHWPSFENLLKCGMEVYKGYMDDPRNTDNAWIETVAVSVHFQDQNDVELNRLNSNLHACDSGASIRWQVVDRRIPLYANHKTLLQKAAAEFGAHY

Row | SMILES | EC50 (TRPM2) | ODmax (450 nm) (INADL d3 [1]) | EC50 (ZO-1 d2 [2]) | ODmax (450 nm) (ZO-1 d2 [2]) | PDZ domain bound (INADL d3 [3]) | PDZ domain bound (ZO-1 d2 [4]) | EC50 (INADL d3 [1])
1 | Nc1ncnc2c1ncn2[C@@H]1O[C@H](COP(=O)(O)OP(=O)(O)OC[C@H]2OC(O)[C@H](O)[C@@H]2O)[C@@H](O)[C@H]1O (stereo partly drawn) [ADP ribose] | 100 µM |  |  |  |  |  | 
2 | CC[C@H](C)[C@H](NC(=O)[C@@H](NC(=O)[C@H](CCCNC(=N)N)NC(=O)[C@H](CC(=O)O)NC(=O)[C@H](CO)NC(=O)[C@H](CCCNC(=N)N)NC(=O)[C@H](C)NC(=O)[C@H](CCCNC(=N)N)NC(=O)[C@H](CCCNC(=N)N)NC(=O)[C@H](CCCNC(=N)N)NC(=O)[C@H](CCC(N)=O)NC(=O)[C@H](CCCNC(=N)N)NC(=O)[C@H](CCCNC(=N)N)NC(=O)[C@H](CCCCN)NC(=O)[C@H](CCCCN)NC(=O)[C@H](CCCNC(=N)N)NC(=O)CNC(=O)[C@H](Cc1ccc(O)cc1)NC(=O)CCCC[C@@H]1SC[C@@H]2NC(=O)N[C@@H]21)[C@@H](C)O)C(=O)N[C@@H](Cc1c[nH]c2ccccc12)C(=O)N[C@@H](C)C(=O)O [Peptide 1829] (Biotin-YGRKKRRQRRRARSDRTIWA-OH; C-terminus assumed) |  | 1.40 | 7 nM | 2.90 | INADL D3 | ZO-1 D2 | 
3 | C[C@H](NC(=O)[C@H](Cc1c[nH]c2ccccc12)NC(=O)[C@H](Cc1ccc(O)cc1)NC(=O)[C@H](CCCCN)NC(=O)[C@H](CCCNC(=N)N)NC(=O)[C@H](CC(=O)O)NC(=O)[C@@H](NC(=O)[C@H](CCCNC(=N)N)NC(=O)[C@H](CO)NC(=O)[C@H](CCCNC(=N)N)NC(=O)[C@H](CCCNC(=N)N)NC(=O)[C@H](CCCNC(=N)N)NC(=O)[C@H](CCC(N)=O)NC(=O)[C@H](CCCNC(=N)N)NC(=O)[C@H](CCCNC(=N)N)NC(=O)[C@H](CCCCN)NC(=O)[C@H](CCCCN)NC(=O)[C@H](CCCNC(=N)N)NC(=O)CNC(=O)[C@H](Cc1ccc(O)cc1)NC(=O)CCCC[C@@H]1SC[C@@H]2NC(=O)N[C@@H]21)[C@@H](C)O)C(=O)O [Peptide 1832] (Biotin-YGRKKRRQRRRSRTDRKYWA-OH; C-terminus assumed) |  | 0.60 | < 20 nM | 2.10 | INADL D3 | ZO-1 D2 | 200 nM
4 | CC[C@H](C)[C@H](NC(=O)[C@H](CCC(N)=O)NC(=O)[C@H](Cc1ccc(O)cc1)NC(=O)[C@H](CCCCN)NC(=O)[C@H](CCCNC(=N)N)NC(=O)[C@H](CC(=O)O)NC(=O)[C@@H](NC(=O)[C@H](CCCNC(=N)N)NC(=O)[C@H](CO)NC(=O)[C@H](CCCNC(=N)N)NC(=O)[C@H](CCCNC(=N)N)NC(=O)[C@H](CCCNC(=N)N)NC(=O)[C@H](CCC(N)=O)NC(=O)[C@H](CCCNC(=N)N)NC(=O)[C@H](CCCNC(=N)N)NC(=O)[C@H](CCCCN)NC(=O)[C@H](CCCCN)NC(=O)[C@H](CCCNC(=N)N)NC(=O)CNC(=O)[C@H](Cc1ccc(O)cc1)NC(=O)CCCC[C@@H]1SC[C@@H]2NC(=O)N[C@@H]21)[C@@H](C)O)C(=O)O [Peptide 1839] (Biotin-YGRKKRRQRRRSRTDRKYQI-OH; C-terminus assumed) |  | 1.60 | < 20 nM | 2.50 | INADL D3 |  | 130 nM
5 | CC[C@H](C)[C@H](NC(=O)[C@H](CC(C)C)NC(=O)[C@H](CCCNC(=N)N)NC(=O)[C@H](CCCNC(=N)N)NC(=O)[C@H](CCC(=O)O)NC(=O)[C@H](CC(=O)O)NC(=O)[C@H](CCC(N)=O)NC(=O)[C@H](CCCNC(=N)N)NC(=O)[C@H](CCCNC(=N)N)NC(=O)[C@H](CCCNC(=N)N)NC(=O)[C@H](CCC(N)=O)NC(=O)[C@H](CCCNC(=N)N)NC(=O)[C@H](CCCNC(=N)N)NC(=O)[C@H](CCCCN)NC(=O)[C@H](CCCCN)NC(=O)[C@H](CCCNC(=N)N)NC(=O)CNC(=O)[C@H](Cc1ccc(O)cc1)NC(=O)CCCC[C@@H]1SC[C@@H]2NC(=O)N[C@@H]21)C(=O)N[C@H](C(=O)N[C@@H](CC(C)C)C(=O)O)C(C)C [Peptide 1842] (Biotin-YGRKKRRQRRRQDERRLIVL-OH) |  | 1.90 | 35 nM | 2.30 |  | ZO-1 D2 | < 1000 nM
6 | CC(C)C[C@H](NC(=O)[C@H](CO)NC(=O)[C@@H](NC(=O)[C@H](CC(C)C)NC(=O)[C@H](CCCNC(=N)N)NC(=O)[C@H](CC(=O)O)NC(=O)CNC(=O)[C@H](CCCNC(=N)N)NC(=O)[C@H](C)NC(=O)[C@H](CCCNC(=N)N)NC(=O)[C@H](CCCNC(=N)N)NC(=O)[C@H](CCCNC(=N)N)NC(=O)[C@H](CCC(N)=O)NC(=O)[C@H](CCCNC(=N)N)NC(=O)[C@H](CCCNC(=N)N)NC(=O)[C@H](CCCCN)NC(=O)[C@H](CCCCN)NC(=O)[C@H](CCCNC(=N)N)NC(=O)CNC(=O)[C@H](Cc1ccc(O)cc1)NC(=O)CCCC[C@@H]1SC[C@@H]2NC(=O)N[C@@H]21)C(C)C)C(=O)O [Peptide 1843] (Biotin-YGRKKRRQRRRARGDRLVSL-OH; C-terminus assumed) |  | 1.20 | 17 nM | 2.20 |  | ZO-1 D2 | < 2000 nM
7 | CC(C)[C@H](NC(=O)[C@H](Cc1ccc(O)cc1)NC(=O)[C@H](Cc1ccc(O)cc1)NC(=O)[C@H](CCC(=O)O)NC(=O)[C@H](CCCCN)NC(=O)[C@H](CC(=O)O)NC(=O)[C@H](CCCCN)NC(=O)[C@H](CC(N)=O)NC(=O)[C@H](CCCCN)NC(=O)[C@H](CCCNC(=N)N)NC(=O)[C@H](CCCNC(=N)N)NC(=O)[C@H](CCCNC(=N)N)NC(=O)[C@H](CCC(N)=O)NC(=O)[C@H](CCCNC(=N)N)NC(=O)[C@H](CCCNC(=N)N)NC(=O)[C@H](CCCCN)NC(=O)[C@H](CCCCN)NC(=O)[C@H](CCCNC(=N)N)NC(=O)CNC(=O)[C@H](Cc1ccc(O)cc1)NC(=O)CCCC[C@@H]1SC[C@@H]2NC(=O)N[C@@H]21)C(=O)O [Peptide 1852] (Biotin-YGRKKRRQRRRKNKDKEYYV-OH) |  |  | < 20 nM |  |  |  | < 20 nM
8 | NC(=O)c1ccc[n+]([C@@H]2O[C@H](COP(=O)([O-])OP(=O)(O)OC[C@H]3O[C@@H](n4cnc5c(N)ncnc54)[C@H](O)[C@@H]3O)[C@@H](O)[C@H]2O)c1 [nicotinamide adenine dinucleotide] | 1000 µM |  |  |  |  |  | 
